Source: patent US20180087079A1, “METHODS OF USING CELL-CYCLE INHIBITORS TO MODULATE ONE OR MORE PROPERTIES OF A CELL CULTURE” (AMGEN INC., priority 2013, published 2018)

Key:
[1] = tested on: transfected CHO cells expressing recombinant human monoclonal antibody (cell line 1); experiment: 24-deep well culture, cell line 1: VCD, viability, titer, qP; format: cell-based, Chinese hamster; conditions: for Titer / VCD / Viability / qP: Cell Line 1; for effect on viability / growth arrest: summary of Table 2
Procedure: Transfected CHO cells expressing a recombinant human monoclonal antibody (mAb) are cultured in 24-deep well plates with seeding density at 1×10^7/mL for five days. At certain time periods, samples of the cultures are taken and evaluated for viable cell density (VCD; expressed in 10^6 cells/mL); percent viability (as determined by trypan blue exclusion); titer of recombinant protein (expressed in grams of protein per liter of culture, or g/L, as determined by Protein A affinity HPLC); qP, or specific productivity (expressed in picograms of recombinant protein per cell per day, or pg/c/d), the presence or absence of high molecular weight substances (usually an indicator of protein aggregation; expressed as % of the total protein); and the relative percentage of Mannose 5, a major intermediate glyco-form that attaches to N297 of the mAb. N-linked glycosylation has an impact on the tertiary structure of the antibody and may affect Fc mediated antibody effector functions. The majority of the human Fc glycans are complex biantennary structures with galactose as the prevalent terminal sugar. Immature glyco-forms, such as high-mannose glycol-forms (Man5-9), are of concern due to potential higher plasma clearance rate (as compared to the clearance rate of complex glycan linked mAbs).
Compounds are further evaluated essentially as described in Example 2 herein. Briefly, transfected CHO cells expressing recombinant human monoclonal antibody (mAb; two different cell lines expressing two different mAb, referred to as cell line 1 and cell line 2) are cultured in 24-deep well plates in the presence or absence of the compounds. At specified time points, samples of the cultures are taken and evaluated for viable cell density (VCD; expressed in 10^6 cells/mL); percent viability (as determined by any method known in the art); titer of recombinant protein (expressed in grams of protein per liter of culture, or g/L, as determined by Protein A affinity HPLC); qP, or specific productivity (expressed in picograms of recombinant protein per cell per day, or pg/c/d). Additional parameters measure include the presence or absence of high molecular weight substances (usually an indicator of protein aggregation; expressed as % of the total protein); and the relative percentage of Mannose 5. For comparison purposes, Compounds A and B, which had been previously tested, were tested again.

[2] = biological target: T1, CDK4/Cyclin D1 (Homo sapiens, UniProt P11802); experiment: CDK4 filtration kinase assay; format: biochemical; conditions: CDK4/Cyclin D1, Rb fragment substrate, [33P]-ATP
T1 construct: purchased Cell Signaling Technology
T1 sequence (P11802 whole entry, species assumed, the tested form may be a part): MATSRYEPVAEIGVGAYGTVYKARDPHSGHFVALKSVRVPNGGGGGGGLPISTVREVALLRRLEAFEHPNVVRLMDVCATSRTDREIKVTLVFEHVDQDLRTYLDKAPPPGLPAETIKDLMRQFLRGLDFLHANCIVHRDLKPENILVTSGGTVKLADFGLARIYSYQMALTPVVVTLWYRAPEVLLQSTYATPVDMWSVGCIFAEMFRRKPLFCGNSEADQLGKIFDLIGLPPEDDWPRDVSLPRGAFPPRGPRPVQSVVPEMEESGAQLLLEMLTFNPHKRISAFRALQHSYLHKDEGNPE
T1 sequence (P24385 whole entry partner, species assumed, the tested form may be a part): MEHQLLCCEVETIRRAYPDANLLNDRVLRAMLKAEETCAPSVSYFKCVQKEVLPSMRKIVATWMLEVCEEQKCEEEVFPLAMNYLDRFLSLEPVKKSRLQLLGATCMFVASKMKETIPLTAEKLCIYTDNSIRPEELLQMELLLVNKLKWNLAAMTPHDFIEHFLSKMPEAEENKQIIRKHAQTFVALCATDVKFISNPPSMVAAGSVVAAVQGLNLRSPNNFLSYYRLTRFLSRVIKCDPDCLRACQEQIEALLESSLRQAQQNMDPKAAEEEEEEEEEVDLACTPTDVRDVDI
Procedure: The CDK4 inhibitory activity of the cell cycle inhibitors was determined with a filtration kinase assay. The compounds, kinase and substrate diluted in the kinase buffer (20 mM Tris, pH7.4, 50 mM NaCl, 1 mM DTT, 0.1% BSA) were sequentially added to a 96-well Multiscreen HTS filtration plate (Millipore). The final 100 μL reaction mixture in each well contained 0.3 μg of CDK4/Cyclin D1 (Cell Signaling Technology), 1 μg of Rb fragment (aa773-928, Millipore) for the CDK4 assay and 1 μCi of [^33P]-ATP. The mixture was incubated at room temperature for 1 hour. The proteins in the reaction were then precipitated and washed with cold TCA solution using an aspiration/filtration vacuum system. The plates were dried at room temperature, and the retained radioactivity was measured by scintillation counting. IC50 values of the compounds in the above assays were determined by non-linear regression analysis using Prism (GraphPad Software).

[3] = tested on: Colo205; experiment: [14C]-thymidine incorporation cell proliferation inhibition assay; format: cell-based; conditions: Homo sapiens, COLO 205, 72 hour incubation
Procedure: The cell proliferation inhibition potency of the cell cycle inhibitors was determined by using a [^14C]-thymidine incorporation assay. Exponentially growing cells (Colo205) were seeded in a 96-well Cytostar T plate (GE Healthcare Biosciences) at a density of 5×10^3 cells/well and incubated overnight. Serially diluted compounds and 0.1 μCi of [^14C]-thymidine (GE Healthcare Biosciences) were added to each well on the following day. After 72 hour incubation, isotope incorporation was determined with a β plate counter (Wallac). IC50 values of the compounds in the above assays were determined by non-linear regression analysis using Prism (GraphPad Software).

CN(C)C1CCN(c2ccc(Nc3ncc4c5ccncc5n(C5CCCC5)c4n3)nn2)CC1 [Compound C, 9-cyclopentyl-N-(6-(4-(dimethylamino)piperidin-1-yl)pyridazin-3-yl)-9H-pyrido[4′,3′:4,5]pyrrolo[2,3-d]pyrimidin-2-amine]
Titer ([1]; 10 microM, D 1): 0.48 g/L
VCD ([1]; 10 microM, D 1): 10.72 e6/mL
Viability ([1]; 10 microM, D 1): 94.37%
qP ([1]; 10 microM, D 1): 44.45 pg/c/d
Titer ([1]; 10 microM, D 2): 0.70 g/L
VCD ([1]; 10 microM, D 2): 8.77 e6/mL
Viability ([1]; 10 microM, D 2): 82.97%
qP ([1]; 10 microM, D 2): 79.79 pg/c/d
Titer ([1]; 10 microM, D 3): 0.94 g/L
VCD ([1]; 10 microM, D 3): 10.83 e6/mL
Viability ([1]; 10 microM, D 3): 84.46%
qP ([1]; 10 microM, D 3): 86.83 pg/c/d
Titer ([1]; 10 microM, D 4): 1.21 g/L
VCD ([1]; 10 microM, D 4): 12.18 e6/mL
Viability ([1]; 10 microM, D 4): 78.70%
qP ([1]; 10 microM, D 4): 99.64 pg/c/d
Titer ([1]; 20 microM, D 1): 0.48 g/L
VCD ([1]; 20 microM, D 1): 11.00 e6/mL
Viability ([1]; 20 microM, D 1): 94.55%
qP ([1]; 20 microM, D 1): 43.31 pg/c/d
Titer ([1]; 20 microM, D 2): 0.67 g/L
VCD ([1]; 20 microM, D 2): 8.28 e6/mL
Viability ([1]; 20 microM, D 2): 80.00%
qP ([1]; 20 microM, D 2): 80.51 pg/c/d
Titer ([1]; 20 microM, D 3): 0.85 g/L
VCD ([1]; 20 microM, D 3): 9.22 e6/mL
Viability ([1]; 20 microM, D 3): 78.87%
qP ([1]; 20 microM, D 3): 91.80 pg/c/d
Titer ([1]; 20 microM, D 4): 1.10 g/L
VCD ([1]; 20 microM, D 4): 10.18 e6/mL
Viability ([1]; 20 microM, D 4): 74.13%
qP ([1]; 20 microM, D 4): 108.01 pg/c/d
effect on viability [1]: greater (but still modest) decreases in viability
growth arrest [1]: more sustained growth arrest
IC50 [2]: 0.00317 µM
IC50 [3]: 0.0171 µM

CC1CCC(n2c3cnccc3c3cnc(Nc4ccc(N5CCNC(C)C5)nn4)nc32)CC1 (stereo not shown) [Compound D, 9-(4-methylcyclohexyl)-N-(6-(3-methylpiperazin-1-yl)pyridazin-3-yl)-9H-pyrido[4′,3′:4,5]pyrrolo[2,3-d]pyrimidin-2-amine]
Titer ([1]; 2.5 microM, D 1): 0.49 g/L
VCD ([1]; 2.5 microM, D 1): 11.85 e6/mL
Viability ([1]; 2.5 microM, D 1): 95.50%
qP ([1]; 2.5 microM, D 1): 41.37 pg/c/d
Titer ([1]; 2.5 microM, D 2): 0.73 g/L
VCD ([1]; 2.5 microM, D 2): 10.72 e6/mL
Viability ([1]; 2.5 microM, D 2): 87.30%
qP ([1]; 2.5 microM, D 2): 67.79 pg/c/d
Titer ([1]; 2.5 microM, D 3): 0.98 g/L
VCD ([1]; 2.5 microM, D 3): 11.11 e6/mL
Viability ([1]; 2.5 microM, D 3): 84.83%
qP ([1]; 2.5 microM, D 3): 87.94 pg/c/d
Titer ([1]; 2.5 microM, D 4): 1.27 g/L
VCD ([1]; 2.5 microM, D 4): 14.71 e6/mL
Viability ([1]; 2.5 microM, D 4): 82.00%
qP ([1]; 2.5 microM, D 4): 86.32 pg/c/d
Titer ([1]; 5 microM, D 1): 0.49 g/L
VCD ([1]; 5 microM, D 1): 11.76 e6/mL
Viability ([1]; 5 microM, D 1): 95.92%
qP ([1]; 5 microM, D 1): 41.95 pg/c/d
Titer ([1]; 5 microM, D 2): 0.70 g/L
VCD ([1]; 5 microM, D 2): 10.17 e6/mL
Viability ([1]; 5 microM, D 2): 86.10%
qP ([1]; 5 microM, D 2): 69.17 pg/c/d
Titer ([1]; 5 microM, D 3): 0.87 g/L
VCD ([1]; 5 microM, D 3): 9.71 e6/mL
Viability ([1]; 5 microM, D 3): 79.43%
qP ([1]; 5 microM, D 3): 89.92 pg/c/d
Titer ([1]; 5 microM, D 4): 1.11 g/L
VCD ([1]; 5 microM, D 4): 11.94 e6/mL
Viability ([1]; 5 microM, D 4): 76.30%
qP ([1]; 5 microM, D 4): 92.69 pg/c/d
Titer ([1]; 10 microM, D 1): 0.49 g/L
VCD ([1]; 10 microM, D 1): 11.35 e6/mL
Viability ([1]; 10 microM, D 1): 94.69%
qP ([1]; 10 microM, D 1): 43.16 pg/c/d
Titer ([1]; 10 microM, D 2): 0.67 g/L
VCD ([1]; 10 microM, D 2): 9.65 e6/mL
Viability ([1]; 10 microM, D 2): 82.20%
qP ([1]; 10 microM, D 2): 69.81 pg/c/d
Titer ([1]; 10 microM, D 3): 0.86 g/L
VCD ([1]; 10 microM, D 3): 9.31 e6/mL
Viability ([1]; 10 microM, D 3): 76.69%
qP ([1]; 10 microM, D 3): 92.01 pg/c/d
Titer ([1]; 10 microM, D 4): 0.99 g/L
VCD ([1]; 10 microM, D 4): 10.04 e6/mL
Viability ([1]; 10 microM, D 4): 70.89%
qP ([1]; 10 microM, D 4): 98.63 pg/c/d
effect on viability [1]: minimal effects on viability
growth arrest [1]: reasonably sustained growth arrest
IC50 [2]: 0.00186 µM
IC50 [3]: 0.0299 µM
